In publication PMC6934184, “Selective DNA-PKcs inhibition extends the therapeutic index of localized radiotherapy and chemotherapy” (The Journal of Clinical Investigation, 2019):

Biological target: T1, EPHA3 (Homo sapiens, UniProt P29320)
T1 construct: purchased Thermo Fisher Scientific (Life Technologies) SelectScreen
Assay: SelectScreen LanthaScreen
Type: binding
Details: read-out: % displacement
How it was run: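 NU5455 was profiled across the SelectScreen Broad panel of kinase activity and binding assays. Z'LYTE reactions such as CSF1R ran at apparent Km ATP, while the Adapta CAMK1 assay used ATP listed as 10. Values are given as percent.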

T1 sequence (P29320 21-983): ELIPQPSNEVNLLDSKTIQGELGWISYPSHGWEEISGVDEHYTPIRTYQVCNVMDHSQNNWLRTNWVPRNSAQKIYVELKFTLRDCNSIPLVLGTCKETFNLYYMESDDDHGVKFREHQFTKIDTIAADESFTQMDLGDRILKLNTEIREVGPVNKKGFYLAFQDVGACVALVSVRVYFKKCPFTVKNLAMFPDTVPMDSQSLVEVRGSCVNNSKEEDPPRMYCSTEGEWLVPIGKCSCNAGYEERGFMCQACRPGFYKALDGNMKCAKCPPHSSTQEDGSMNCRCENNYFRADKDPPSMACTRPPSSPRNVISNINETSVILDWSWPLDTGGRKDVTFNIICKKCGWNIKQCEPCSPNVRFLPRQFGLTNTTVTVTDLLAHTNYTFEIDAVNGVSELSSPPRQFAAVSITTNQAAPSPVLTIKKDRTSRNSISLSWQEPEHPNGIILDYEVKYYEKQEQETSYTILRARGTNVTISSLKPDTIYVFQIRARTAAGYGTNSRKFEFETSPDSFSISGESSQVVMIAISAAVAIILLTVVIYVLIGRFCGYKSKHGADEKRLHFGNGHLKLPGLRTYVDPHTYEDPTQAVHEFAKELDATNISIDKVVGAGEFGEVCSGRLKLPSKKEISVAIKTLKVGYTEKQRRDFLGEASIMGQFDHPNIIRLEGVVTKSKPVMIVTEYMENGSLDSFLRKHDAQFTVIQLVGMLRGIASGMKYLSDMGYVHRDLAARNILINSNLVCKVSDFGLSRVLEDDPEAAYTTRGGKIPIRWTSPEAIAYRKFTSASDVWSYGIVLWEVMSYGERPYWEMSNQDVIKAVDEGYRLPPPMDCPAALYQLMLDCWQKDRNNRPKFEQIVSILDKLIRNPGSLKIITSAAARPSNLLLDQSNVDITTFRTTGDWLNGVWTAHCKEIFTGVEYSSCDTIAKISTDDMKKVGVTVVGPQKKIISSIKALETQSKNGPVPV

SMILES: CN(C(=O)CN1CCOCC1)c1ccc2sc3c(-c4cccc5c(=O)cc(N6CC7CCC(C6)O7)oc45)cccc3c2c1 [NU5455]
- inhibition at 1 µM: -0.3%
